# According to publication PMC8306933 (Molecules, 2021):
# Read-outs that look alike come from different tables or passages of the source.
# Experiments:
# [1] = target: T1, α-amylase from porcine pancreas (Sus scrofa, UniProt P00690); assay: biochemical; assay type: biochemical
# T1 construct: purchased Sigma-Aldrich (St. Louis, MO, USA); host or cells: porcine pancreas
# T1 sequence (P00690 16-511): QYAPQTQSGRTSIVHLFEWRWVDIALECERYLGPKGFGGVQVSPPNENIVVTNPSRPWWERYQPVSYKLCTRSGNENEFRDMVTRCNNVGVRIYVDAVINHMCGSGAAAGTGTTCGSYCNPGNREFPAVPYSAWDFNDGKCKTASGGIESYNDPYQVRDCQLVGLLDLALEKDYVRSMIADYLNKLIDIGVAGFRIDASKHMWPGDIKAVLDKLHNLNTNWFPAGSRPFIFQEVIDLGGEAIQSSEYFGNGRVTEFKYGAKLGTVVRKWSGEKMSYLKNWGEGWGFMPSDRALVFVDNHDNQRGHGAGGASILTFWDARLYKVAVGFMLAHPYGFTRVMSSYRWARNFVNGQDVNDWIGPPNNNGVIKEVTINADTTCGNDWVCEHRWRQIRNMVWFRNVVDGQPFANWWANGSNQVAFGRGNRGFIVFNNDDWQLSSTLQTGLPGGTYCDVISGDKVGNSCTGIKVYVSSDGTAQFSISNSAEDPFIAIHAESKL
# From the text: (§1) Trizma hydrochloride (Tris-HCl) and bovine serum albumin (BSA) were obtained from Sigma–Aldrich (Steinheim, Germany). Deionized water was produced using a Milli-Q water purification system (Millipore, Bedford, MA, USA). Dulbecco’s Modified Eagle Medium (DMEM) was collected from Gibco (Japan), and fetal bovine serum (FBS) was also collected from Gibco (Waltham, MA, USA). Insulin and penicillin G/streptomycin were collected from Wako (Fujifilm Wako Pure Chemical Corporation, Osaka, Japan), the MTS kit was collected from Promega (Madison, WI, USA), and poly-2-hydroxyethyl methacrylate was collected from Sigma-Aldrich (Taufkirchen, Germany).
# α-Amylase inhibitory activity was determined following the starch-iodine method with some modifications. A 1% starch solution was prepared by 1 g of starch in 10 mL of distilled water following gentle boiling and cooling into 100 mL. A reaction mixture, 25 μL sample (0–1 mM) and 50 μL α-amylase (5 U/mL) in phosphate buffer, was incubated at 37 °C for 10 min. Afterwards, the starch (100 μL, 1% w/v) solution was added to the mixture and incubated again at 37 °C for 10 min. […] After adding the iodine/iodide solution, based on the colour change, the absorbance was monitored at 630 nm for 10 min. […] The percentage of inhibition was calculated and results were expressed as IC50 (µM).
# [2] = target: T2, Acetylcholinesterase from electric eel (Electrophorus electricus, UniProt O42275); assay: biochemical; assay type: biochemical
# T2 construct: purchased Sigma-Aldrich (St. Louis, MO, USA) type VI-s; host or cells: electric eel
# From the text: as §1
# (§2) The cholinesterase inhibitory (AChE/BChE) properties were ascertained based on Ellman’s method, as previously described. […] In the AChE inhibitory assay, 25 µL of sample solution (0–1 mM) along with 50 µL of buffer B (50 mM Tris-HCl, pH 8 containing 0.1% BSA), 125 µL of DTNB (3 mM), and 25 µL of 0.05 U/mL AChE were incubated at 37 °C for 10 min. After incubation, 25 µL of acetylthiocholine iodide (5 mM) as AChE substrate was incorporated to the solution. The BChE activity was determined following the same protocol using 25 µL of 5 mM S-butyrylthiocholine chloride as BChE substrate and 0.05 U/mL BChE as enzyme. […] The percentage of inhibition was calculated and the results were expressed as IC50 (µM).
# [3] = target: T3, butyrylcholinesterase from equine serum (Equus caballus, UniProt P81908); assay: BChE inhibition (Ellman's method); assay type: biochemical
# T3 construct: purchased Sigma-Aldrich (St. Louis, MO, USA); host or cells: equine serum
# From the text: as §1, §2
# Hs578T cells [4] = assay: Cytotoxicity / cell viability (MTS assay), Hs578T; assay type: cell-based; details: for IC50: Homo sapiens, Hs-578T, TNBC cell line Hs578T, read-out: IC50 cytotoxic activity Hs578T; for reduction of the number of TNBC cells Hs578T: after three days of treatment at IC50
# Experimental: (§3) The human TNBC cell lines Hs578T and MDA-MB-231 were obtained from the American Type Culture Collection and cultured in Dulbecco’s Modified Eagle Medium (DMEM) supplemented with fetal bovine serum (FBS) (10% v/v), insulin (Hs578T cell only), and penicillin G/streptomycin 1% (v/v) at 37 °C under 5% CO2. The absence of culture contamination by Mycoplasma species was confirmed before the experiments.
# (§4) The activity of the selected compounds on breast cancer cell viability were determined employing the MTS assay. Briefly, 5 × 10^3 cells were seeded in each well of a 96-well plate for 24 h, and growth medium containing different compounds was added and incubated in different periods. A total of 20 µL of the MTS kit was added to each well, and the cells were incubated for 2 h. After incubation, the absorbance was measured at 490 nm with an enzyme-linked immunosorbent assay microplate reader (BioTek Instruments, USA). The absorbance value is directly proportional to the number of living cells.
# MDA-MB-231 cells [5] = assay: Cytotoxicity / cell viability (MTS assay), MDA-MB-231; assay type: cell-based; details: for IC50: Homo sapiens, TNBC cell line MDA-MB-231, read-out: IC50 cytotoxic activity MDA-MB-231; for reduction of the number of TNBC cells MDA-MB-231: after three days of treatment at IC50
# Experimental: as §3, §4
# Hs578T cells [6] = assay: Transwell cell migration assay, Hs578T; assay type: cell-based, human; details: at IC50; vs DMSO control
# Experimental: as §3
# (§5) The effects of the selected compounds on breast cancer cell migration were evaluated in transwell chambers according to a published protocol. Briefly, the Hs578T and MDA-MB-231 cells were treated with the tested compounds for 24 h, trypsinized, and washed twice with serum-free medium. Approximately 3 × 10^4 pretreated cells, suspended in 100 μL of the serum-free medium, were seeded to the upper chamber. The lower chambers were filled with approximately 500 μL of DMEM medium with 10% FBS and incubated for 12 h. After incubation, the cells from the upper surface were wiped off with cotton swabs, while the migrated cells on the opposite side of the transwell were washed twice with PBS, fixed with 4% paraformaldehyde, and finally stained with crystal violet solution. After 2 washes with water (Milli Q), several microscopic fields were taken randomly, and the migrated cells were counted using ImageJ software.
# MDA-MB-231 cells [7] = assay: Transwell cell migration assay, MDA-MB-231; assay type: cell-based, human; details: at IC50; vs DMSO control
# Experimental: as §3, §5
# Hs578T cells [8] = assay: Tumor-sphere formation assay, Hs578T; assay type: cell-based, human; details: in vitro tumor-sphere formation
# Experimental: as §3
# (§6) Three-dimensional or tumor-sphere culture is a recently introduced in vitro technique which maintains a physiological environment which closely resembles that of in vivo conditions. This technique has now been widely used for the screening of anticancer moieties. In vitro tumor-sphere formation assay was performed following a reported protocol. Briefly, approximately 3 × 10^3 cells were resuspended in a poly-2-hydroxyethyl methacrylate coated 6-well plate containing a sphere-forming medium with or without tested compounds and incubated for one week. The number of tumor spheres were counted, and the diameter of each tumor sphere was measured.
# MDA-MB-231 cells [9] = assay: Tumor-sphere formation assay, MDA-MB-231; assay type: cell-based, human; details: in vitro tumor-sphere formation
# Experimental: as §3, §6
# [10] = mean ± SD (n = 3), mammalian α-amylase
# [11] = mean ± SD (n = 3), mammalian α-amylase, read-out: IC50 α-Amylase
# [12] = mean ± SD (n = 3), tested 0–1 mM
# [13] = mean ± SD (n = 3), tested 0–1 mM, read-out: IC50 AChE
# [14] = mean ± SD (n = 3), tested 0–1 mM, read-out: IC50 BChE
# T2 sequence (O42275 24-633): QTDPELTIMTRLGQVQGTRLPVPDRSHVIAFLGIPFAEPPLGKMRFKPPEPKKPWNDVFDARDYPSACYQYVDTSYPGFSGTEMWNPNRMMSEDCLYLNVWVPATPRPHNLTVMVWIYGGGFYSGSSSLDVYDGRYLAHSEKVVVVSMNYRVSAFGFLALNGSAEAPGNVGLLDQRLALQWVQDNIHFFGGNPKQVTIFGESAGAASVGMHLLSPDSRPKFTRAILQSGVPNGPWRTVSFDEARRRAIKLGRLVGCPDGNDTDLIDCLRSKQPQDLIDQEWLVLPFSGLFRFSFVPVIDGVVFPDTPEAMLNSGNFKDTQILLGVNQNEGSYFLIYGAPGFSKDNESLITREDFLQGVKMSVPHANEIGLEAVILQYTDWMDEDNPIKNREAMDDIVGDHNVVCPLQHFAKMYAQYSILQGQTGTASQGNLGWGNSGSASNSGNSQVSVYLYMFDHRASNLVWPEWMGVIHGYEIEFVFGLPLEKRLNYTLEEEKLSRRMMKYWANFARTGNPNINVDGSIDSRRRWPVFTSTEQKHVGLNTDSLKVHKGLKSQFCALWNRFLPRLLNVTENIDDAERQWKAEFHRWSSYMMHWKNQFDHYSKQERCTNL
# T3 sequence (P81908 whole entry): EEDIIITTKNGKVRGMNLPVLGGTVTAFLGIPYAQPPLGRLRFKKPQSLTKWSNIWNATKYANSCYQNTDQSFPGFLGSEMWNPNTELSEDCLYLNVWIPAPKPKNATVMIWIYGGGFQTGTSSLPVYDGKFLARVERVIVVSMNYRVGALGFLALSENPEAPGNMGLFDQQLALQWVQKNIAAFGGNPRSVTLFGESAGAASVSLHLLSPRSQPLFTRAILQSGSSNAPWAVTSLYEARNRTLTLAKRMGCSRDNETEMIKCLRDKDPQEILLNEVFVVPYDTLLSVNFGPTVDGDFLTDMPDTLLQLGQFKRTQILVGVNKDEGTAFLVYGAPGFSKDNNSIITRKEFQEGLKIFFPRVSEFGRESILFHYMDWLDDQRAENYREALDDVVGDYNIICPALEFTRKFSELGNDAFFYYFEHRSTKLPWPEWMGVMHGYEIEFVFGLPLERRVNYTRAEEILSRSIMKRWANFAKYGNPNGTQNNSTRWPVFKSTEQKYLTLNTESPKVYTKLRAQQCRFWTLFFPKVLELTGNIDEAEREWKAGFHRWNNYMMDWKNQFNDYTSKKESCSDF
SMILES,IC50 [1] [µM],IC50 [2] [µM],IC50 [3] [µM],IC50 (Hs578T cells [4]) [µM],IC50 (MDA-MB-231 cells [5]) [µM],"IC50 α-Amylase [1, 10]","IC50 [1, 11] [µM]","IC50 AChE [2, 12]","IC50 [2, 13] [µM]","IC50 [3, 14] [µM]",reduction of the number of TNBC cells Hs578T (Hs578T cells [4]) [%],reduction of the number of TNBC cells MDA-MB-231 (MDA-MB-231 cells [5]) [%],inhibition of migration of Hs578T cell (Hs578T cells [6]) [%],inhibition of migration of MDA-MB-231 (MDA-MB-231 cells [7]) [%],"tumor-sphere size and number, Hs578T (Hs578T cells [8])","tumor-sphere size and number, MDA-MB-231 (MDA-MB-231 cells [9])"
"CC1=C(CO)[C@@H]2CC(=O)c3cc(C[C@@H](C)O)c(O[C@@H]4O[C@@H](CO)C(O)[C@H](O)[C@@H]4O[C@@H]4O[C@H](CO)[C@@H](O)[C@H](O)[C@@H]4O)c(O)c3[C@@]2(C)CC1 (stereo partly drawn) [Compound 1, (5R,10S,16R)-11,16,19-trihydroxy-12-O-β-D-glucopyranosyl-(1→2)-β-D-glucopyranosyl-17(15→16),18(4→3)-diabeo-3,8,11,13-abietatetraene-7-one]",18.5 ± 0.6,191 ± 10.2,> 1000,128 ± 2.2,122 ± 1.2,,,,,,,,,,,
"CC1=C(C(=O)O)C2CC(=O)c3cc(CC(C)O)c(OC4OC(CO)C(O)C(O)C4OC4OC(CO)C(O)C(O)C4O)c(O)c3C2(C)CC1 [Compound 2, (5R,10S,16R)-11,16-dihydroxy-12-O-β-D-glucopyranosyl-(1→2)-β-D-glucopyranosyl-17(15→16),18(4→3)-diabeo-4-carboxy-3,8,11,13-abietatetraene-7-one]",64.6 ± 7.1,139 ± 7.2,> 1000,,,,,,,,,,,,,
"CC1=CC(=O)CC(C)(C)[C@H]1CC[C@@H](C)O[C@@H]1O[C@H](CO)[C@@H](O)[C@H](O)[C@H]1O [Compound 3, byzantionoside B]",,,,94.7 ± 1.3,118 ± 3.3,almost inactive,284 ± 13.2,no inhibitory activity,> 1000,> 1000,44,48,50,40,,
"O=C(O)C[C@H]1CCC(=O)[C@@H]1C/C=C\CCO[C@@H]1O[C@H](COC(=O)/C=C/c2ccc(O)c(O)c2)[C@@H](O)[C@H](O)[C@H]1O [Compound 4, 6′-O-caffeoyl-12-glucopyranosyloxyjasmonic acid]",,,,210 ± 5.1,199 ± 3.1,,13 ± 1.3,no inhibitory activity,> 1000,> 1000,,,,,,
"CC1OC(OC2C(O)C(OCCc3ccccc3)OC(CO)C2OC(=O)C=Cc2ccc(O)c(O)c2)C(O)C(O)C1O (stereo not drawn) [Compound 5, jionoside C]",,,,85.3 ± 2.4,96.5 ± 1.5,,24.9 ± 0.4,,160 ± 12.2,> 1000,42,43,43,37,"reduced the cell size (Figure 5A,C) and the cell number significantly","reduced the cell size (Figure 5A,C) and the cell number significantly"
"COc1ccc(CCO[C@@H]2O[C@H](CO)[C@@H](OC(=O)/C=C/c3ccc(O)c(O)c3)[C@H](O[C@@H]3O[C@@H](C)[C@H](O)[C@@H](O)[C@H]3O)[C@H]2O)cc1O [Compound 6, jionoside D]",,,,,,,3.4 ± 0.2,no inhibitory activity,> 1000,> 1000,,,,,,
"COc1ccc(CCO[C@@H]2O[C@H](CO)[C@@H](OC(=O)/C=C/c3ccc(O)c(O)c3)[C@H](O[C@@H]3O[C@@H](C)[C@H](O)[C@@H](O)[C@H]3O)[C@H]2O)cc1OC [Compound 7, brachynoside]",,,,,,almost inactive,221 ± 24.5,no inhibitory activity,> 1000,> 1000,,,,,,
"COc1cc(/C=C/C(=O)O[C@H]2[C@H](O[C@@H]3O[C@@H](C)[C@H](O)[C@@H](O)[C@H]3O[C@@H]3O[C@H](CO)[C@@H](O)[C@H](O)[C@H]3O)[C@@H](O)[C@H](OCCc3ccc(O)c(O)c3)O[C@@H]2CO)ccc1O [Compound 8, incanoside C]",,,,,,,19.8 ± 0.5,,178 ± 11.3,> 1000,,,,,,
